# Data from patent US20080009418A1, “Selective Inhibitors” (Alchemia LTD., priority 2004, published 2008).
# Assays:
# Conditions in all cases: compound at 10 μM
# Human δ-opioid (DOP) = molecular target: T1, Human δ-opioid (DOP) (Homo sapiens, UniProt P41143); test: Radioligand binding, human δ-opioid (DOP) membranes, FlashPlate, [3H]-Bremazocine
# T1 construct: purchased Perkin Elmer Biosignal
# In short: (§1)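 Cloned human receptor membranes were coated onto FlashPlate wells and incubated with radioligand and compound (added from a 0.5 mM DMSO daughter plate) for 1 hour at room temperature in the dark. Scintillation counting gave percent inhibition, with DMSO defining total and reference ligand defining non-specific binding.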
# Human κ-Opioid (KOP) = molecular target: T2, Human κ-Opioid (KOP) (Homo sapiens, UniProt P41145); test: Radioligand binding, human κ-opioid (KOP) membranes, filtration, [3H]-Diprenorphine
# T2 construct: purchased Perkin Elmer Biosignal
# T2 sequence (P41145 whole entry): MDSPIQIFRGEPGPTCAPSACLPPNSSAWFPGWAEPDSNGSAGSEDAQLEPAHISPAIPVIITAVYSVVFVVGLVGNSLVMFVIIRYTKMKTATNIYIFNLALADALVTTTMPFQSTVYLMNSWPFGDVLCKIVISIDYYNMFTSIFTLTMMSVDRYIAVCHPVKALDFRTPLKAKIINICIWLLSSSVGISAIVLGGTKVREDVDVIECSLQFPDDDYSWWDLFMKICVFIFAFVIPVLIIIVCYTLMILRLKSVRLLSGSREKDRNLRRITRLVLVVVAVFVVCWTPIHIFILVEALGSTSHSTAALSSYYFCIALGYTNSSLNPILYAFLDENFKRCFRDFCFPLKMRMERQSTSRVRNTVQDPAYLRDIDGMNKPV
# In short: (§2)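 Filtration binding on cloned human receptor membranes (1 Unit/well), [125I]-Substance P for NK1 and [3H]-Diprenorphine for KOP, 1 h at room temperature. Filters PEI-presoaked, washed with cold 50 mM Tris-HCl pH 7.4, counted by scintillation; percent inhibition calculated, reference ligand defining non-specific binding.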
# Human Melanocortin (MC3) = molecular target: T3, Human Melanocortin (MC3) (Homo sapiens, UniProt P41968); test: Radioligand binding, human melanocortin MC3 membranes, FlashPlate, [125I]-NDP-αMSH
# T3 construct: purchased Perkin Elmer Biosignal
# T3 sequence (P41968 whole entry): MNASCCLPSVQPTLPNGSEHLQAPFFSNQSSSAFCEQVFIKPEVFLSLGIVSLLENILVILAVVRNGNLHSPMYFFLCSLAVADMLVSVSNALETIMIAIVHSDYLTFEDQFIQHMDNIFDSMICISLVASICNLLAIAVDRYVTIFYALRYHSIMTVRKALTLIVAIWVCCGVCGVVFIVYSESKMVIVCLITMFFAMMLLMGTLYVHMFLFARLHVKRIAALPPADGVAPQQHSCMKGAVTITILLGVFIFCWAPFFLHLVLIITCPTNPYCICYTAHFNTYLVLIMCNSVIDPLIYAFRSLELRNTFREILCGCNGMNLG
# In short: as §1
# Human Melanocortin (MC4) = molecular target: T4, Human Melanocortin (MC4) (Homo sapiens, UniProt P32245); test: Radioligand binding, human melanocortin MC4 membranes, FlashPlate, [125I]-NDP-αMSH
# T4 construct: purchased Perkin Elmer Biosignal
# T4 sequence (P32245 whole entry): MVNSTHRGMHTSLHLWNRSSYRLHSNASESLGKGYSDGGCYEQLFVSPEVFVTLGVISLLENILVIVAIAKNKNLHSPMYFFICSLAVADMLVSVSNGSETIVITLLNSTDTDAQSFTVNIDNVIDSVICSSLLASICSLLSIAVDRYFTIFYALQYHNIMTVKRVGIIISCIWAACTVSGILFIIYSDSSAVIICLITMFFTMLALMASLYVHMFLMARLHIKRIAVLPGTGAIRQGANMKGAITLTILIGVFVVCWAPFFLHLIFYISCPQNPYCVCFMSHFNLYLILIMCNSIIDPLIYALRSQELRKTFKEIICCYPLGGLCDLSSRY
# In short: as §1
# Human melanocortin (MC5) = molecular target: T5, Human melanocortin (MC5) (Homo sapiens, UniProt P33032); test: Radioligand binding, human melanocortin MC5 membranes, FlashPlate, [125I]-NDP-αMSH
# T5 construct: purchased Perkin Elmer Biosignal
# T5 sequence (P33032 whole entry): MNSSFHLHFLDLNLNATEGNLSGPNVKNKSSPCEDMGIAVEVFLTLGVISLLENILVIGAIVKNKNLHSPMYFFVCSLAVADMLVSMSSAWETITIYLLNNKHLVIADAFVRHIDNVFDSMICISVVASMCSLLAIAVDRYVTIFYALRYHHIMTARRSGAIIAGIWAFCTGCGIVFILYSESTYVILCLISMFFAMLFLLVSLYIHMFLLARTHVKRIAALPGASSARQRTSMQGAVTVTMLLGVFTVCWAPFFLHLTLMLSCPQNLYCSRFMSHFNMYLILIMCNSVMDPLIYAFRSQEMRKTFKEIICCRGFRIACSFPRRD
# In short: as §1
# [1] = molecular target: T6, Human melanin-concentrating hormone (MCH1) (Homo sapiens, UniProt Q99705); test: Radioligand binding, human melanin-concentrating hormone MCH1 membranes, FlashPlate, [125I]-S36057
# T6 construct: purchased Perkin Elmer Biosignal
# T6 sequence (Q99705 whole entry): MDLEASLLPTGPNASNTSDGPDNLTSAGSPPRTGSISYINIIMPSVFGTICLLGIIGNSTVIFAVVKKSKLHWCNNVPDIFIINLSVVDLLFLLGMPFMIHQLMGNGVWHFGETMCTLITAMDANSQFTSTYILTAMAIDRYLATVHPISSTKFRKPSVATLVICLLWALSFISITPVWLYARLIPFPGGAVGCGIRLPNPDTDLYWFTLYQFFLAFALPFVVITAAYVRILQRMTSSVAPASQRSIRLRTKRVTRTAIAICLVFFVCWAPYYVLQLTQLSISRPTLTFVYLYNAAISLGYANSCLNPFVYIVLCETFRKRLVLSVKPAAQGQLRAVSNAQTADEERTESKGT
# In short: as §1
# Human μ-opioid (MOP) = molecular target: T7, Human μ-opioid (MOP) (Homo sapiens, UniProt P35372); test: Radioligand binding, human μ-opioid (MOP) membranes, FlashPlate, [3H]-Naloxone
# T7 construct: purchased Perkin Elmer Biosignal
# T7 sequence (P35372 whole entry): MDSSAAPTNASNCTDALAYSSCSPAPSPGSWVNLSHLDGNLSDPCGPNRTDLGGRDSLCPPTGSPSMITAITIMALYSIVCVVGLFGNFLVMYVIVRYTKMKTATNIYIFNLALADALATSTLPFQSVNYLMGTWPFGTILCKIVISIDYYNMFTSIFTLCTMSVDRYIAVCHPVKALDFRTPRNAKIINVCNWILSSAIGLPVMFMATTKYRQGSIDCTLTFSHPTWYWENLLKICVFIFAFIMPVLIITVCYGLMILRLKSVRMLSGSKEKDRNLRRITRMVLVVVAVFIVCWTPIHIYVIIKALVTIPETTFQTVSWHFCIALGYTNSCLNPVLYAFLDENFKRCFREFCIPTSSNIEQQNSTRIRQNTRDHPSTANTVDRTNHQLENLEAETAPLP
# In short: as §1
# Human neurokinin (NK1) = molecular target: T8, Human neurokinin (NK1) (Homo sapiens, UniProt P25103); test: Radioligand binding, human neurokinin NK1 membranes, filtration, [125I]-Substance P
# T8 construct: purchased Perkin Elmer Biosignal
# T8 sequence (P25103 whole entry): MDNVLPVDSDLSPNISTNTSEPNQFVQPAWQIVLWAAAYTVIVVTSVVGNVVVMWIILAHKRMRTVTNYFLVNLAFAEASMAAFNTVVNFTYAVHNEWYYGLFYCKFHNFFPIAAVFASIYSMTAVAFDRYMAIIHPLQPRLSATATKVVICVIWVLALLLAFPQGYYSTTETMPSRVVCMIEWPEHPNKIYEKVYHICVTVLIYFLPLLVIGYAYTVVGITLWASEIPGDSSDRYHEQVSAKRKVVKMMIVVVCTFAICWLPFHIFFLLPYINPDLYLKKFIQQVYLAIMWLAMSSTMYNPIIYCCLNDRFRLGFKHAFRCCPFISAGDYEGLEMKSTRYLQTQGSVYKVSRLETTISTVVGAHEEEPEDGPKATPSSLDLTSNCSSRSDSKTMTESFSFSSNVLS
# In short: as §2
# [2] = molecular target: T9, Human neuropeptide Y (NPY-Y1) (Homo sapiens, UniProt P25929); test: Radioligand binding, human neuropeptide Y NPY-Y1 membranes, FlashPlate, [125I]-PYY
# T9 construct: purchased Perkin Elmer Biosignal
# T9 sequence (P25929 1-384): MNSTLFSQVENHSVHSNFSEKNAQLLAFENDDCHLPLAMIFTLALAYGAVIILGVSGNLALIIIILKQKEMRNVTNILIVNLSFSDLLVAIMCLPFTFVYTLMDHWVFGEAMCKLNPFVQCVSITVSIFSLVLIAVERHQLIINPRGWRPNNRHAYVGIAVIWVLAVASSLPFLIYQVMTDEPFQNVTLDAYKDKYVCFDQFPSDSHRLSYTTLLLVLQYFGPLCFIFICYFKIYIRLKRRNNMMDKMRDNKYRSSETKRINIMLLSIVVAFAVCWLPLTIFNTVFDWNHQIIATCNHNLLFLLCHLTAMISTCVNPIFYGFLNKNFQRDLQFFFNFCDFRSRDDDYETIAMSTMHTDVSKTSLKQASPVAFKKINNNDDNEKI
# In short: as §1
# Human opioid (ORL1) = molecular target: T10, Human opioid (ORL1) (Homo sapiens, UniProt P41146); test: Radioligand binding, human opioid ORL1 membranes, FlashPlate, [125I]-Nociceptin
# T10 construct: purchased Perkin Elmer Biosignal
# T10 sequence (P41146 whole entry): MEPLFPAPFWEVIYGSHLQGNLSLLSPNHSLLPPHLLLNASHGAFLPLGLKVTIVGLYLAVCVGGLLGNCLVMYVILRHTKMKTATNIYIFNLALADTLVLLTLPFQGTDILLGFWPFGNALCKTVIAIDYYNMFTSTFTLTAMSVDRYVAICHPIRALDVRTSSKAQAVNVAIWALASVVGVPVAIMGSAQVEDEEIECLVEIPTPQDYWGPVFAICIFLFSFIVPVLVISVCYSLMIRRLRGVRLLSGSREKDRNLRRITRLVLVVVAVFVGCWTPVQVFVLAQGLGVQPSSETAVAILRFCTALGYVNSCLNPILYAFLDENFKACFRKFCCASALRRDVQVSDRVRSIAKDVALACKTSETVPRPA
# In short: as §1
# Mouse urotensin (mUR2) = molecular target: T11, Mouse urotensin (mUR2) (Mus musculus, UniProt Q8VIH9); test: Radioligand binding, mouse urotensin mUR2 membranes, FlashPlate, [125I]-Urotensin II
# T11 construct: purchased Perkin Elmer Biosignal
# T11 sequence (Q8VIH9 1-385): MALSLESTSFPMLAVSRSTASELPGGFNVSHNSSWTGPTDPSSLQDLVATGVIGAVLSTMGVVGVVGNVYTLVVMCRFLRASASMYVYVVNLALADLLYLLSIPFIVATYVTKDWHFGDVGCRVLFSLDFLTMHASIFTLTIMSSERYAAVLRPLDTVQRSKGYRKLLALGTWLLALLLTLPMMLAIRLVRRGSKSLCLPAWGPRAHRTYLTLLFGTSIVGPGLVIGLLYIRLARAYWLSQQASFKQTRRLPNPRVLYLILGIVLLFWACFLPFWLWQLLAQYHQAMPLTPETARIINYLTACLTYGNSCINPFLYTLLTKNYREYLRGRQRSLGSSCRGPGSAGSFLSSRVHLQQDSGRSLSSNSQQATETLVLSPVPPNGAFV
# In short: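 Cloned mouse urotensin (mUR2) receptor membranes from Perkin Elmer Biosignal were immobilized in FlashPlate microplates using a proprietary coating. Each well got 19.5 μl buffer, then 0.5 μl of DMSO, reference ligand, or compound. Adding 5 μl of [125I]-Urotensin II, diluted to 5× final concentration in binding buffer, started binding. Plates were sealed with TopSeal-A and incubated 1 hour at room temperature in the dark. Wells were counted for 30 seconds each on a TopCount after a 60-second delay, and percentage inhibition was calculated.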
# T1 sequence (P41143 whole entry): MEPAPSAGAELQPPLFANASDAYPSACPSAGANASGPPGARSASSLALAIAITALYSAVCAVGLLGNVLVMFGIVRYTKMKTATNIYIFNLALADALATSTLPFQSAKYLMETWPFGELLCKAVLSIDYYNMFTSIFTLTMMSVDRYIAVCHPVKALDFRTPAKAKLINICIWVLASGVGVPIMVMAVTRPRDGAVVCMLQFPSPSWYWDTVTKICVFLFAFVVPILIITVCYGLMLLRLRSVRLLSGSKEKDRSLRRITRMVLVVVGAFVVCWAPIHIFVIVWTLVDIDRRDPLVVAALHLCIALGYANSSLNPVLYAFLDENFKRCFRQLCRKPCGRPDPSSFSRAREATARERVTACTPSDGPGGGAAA
smiles,measurement,setting,value
N=C(N)NCCC(=O)NC1C(OCc2ccc(-c3ccccc3)cc2)OC(COCc2ccc3ccccc3c2)C(O)C1OCc1ccc(Cl)cc1 (stereo not drawn) [compound 408],A1: inhibition of radioligand binding,"Human δ-opioid (DOP); [3H]-Bremazocine, human DOP membranes",− (“−” indicates less than 50% inhibition at 10 μM)
same,A2: inhibition of radioligand binding,"Human κ-Opioid (KOP); [3H]-Diprenorphine, human KOP membranes",− (“−” indicates less than 50% inhibition at 10 μM)
same,A3: inhibition of radioligand binding,"Human Melanocortin (MC3); [125I]-NDP-αMSH, human MC3 membranes",+ (“+” indicates greater than 50% inhibition at 10 μM)
same,A4: inhibition of radioligand binding,"Human Melanocortin (MC4); [125I]-NDP-αMSH, human MC4 membranes",+ (“+” indicates greater than 50% inhibition at 10 μM)
same,A5: inhibition of radioligand binding,"Human melanocortin (MC5); [125I]-NDP-αMSH, human MC5 membranes",+ (“+” indicates greater than 50% inhibition at 10 μM)
same,A6: inhibition of radioligand binding,"[1]; [125I]-S36057, human MCH1 membranes",+ (“+” indicates greater than 50% inhibition at 10 μM)
same,A7: inhibition of radioligand binding,"Human μ-opioid (MOP); [3H]-Naloxone, human MOP membranes",− (“−” indicates less than 50% inhibition at 10 μM)
same,A8: inhibition of radioligand binding,"Human neurokinin (NK1); [125I]-Substance P, human NK1 membranes",+ (“+” indicates greater than 50% inhibition at 10 μM)
same,A9: inhibition of radioligand binding,"[2]; [125I]-PYY, human NPY-Y1 membranes",− (“−” indicates less than 50% inhibition at 10 μM)
same,A10: inhibition of radioligand binding,"Human opioid (ORL1); [125I]-Nociceptin, human ORL1 membranes",+ (“+” indicates greater than 50% inhibition at 10 μM)
same,A11: inhibition of radioligand binding,"Mouse urotensin (mUR2); [125I]-Urotensin II, mouse mUR2 membranes",− (“−” indicates less than 50% inhibition at 10 μM)
N=C(N)NCCC(=O)N[C@H]1C(OCc2ccc(Cl)cc2)O[C@H](COCc2ccc(Cl)cc2)[C@@H](O)[C@@H]1OCc1ccc(-c2ccccc2)cc1 (stereo partly drawn) [compound 537],"A1: inhibition of radioligand binding, human δ-opioid (DOP)",Human δ-opioid (DOP); [3H]-Bremazocine,− (“−” indicates less than 50% inhibition at 10 μM)
same,"A2: inhibition of radioligand binding, human κ-opioid (KOP)","Human κ-Opioid (KOP); [3H]-Diprenorphine, 10 µM",− (“−” indicates less than 50% inhibition at 10 μM)
same,"A3: inhibition of radioligand binding, human melanocortin (MC3)",Human Melanocortin (MC3); [125I]-NDP-αMSH,+ (“+” indicates greater than 50% inhibition at 10 μM)
same,"A4: inhibition of radioligand binding, human melanocortin (MC4)",Human Melanocortin (MC4); [125I]-NDP-αMSH,+ (“+” indicates greater than 50% inhibition at 10 μM)
same,"A5: inhibition of radioligand binding, human melanocortin (MC5)",Human melanocortin (MC5); [125I]-NDP-αMSH,+ (“+” indicates greater than 50% inhibition at 10 μM)
same,"A6: inhibition of radioligand binding, human melanin-concentrating hormone (MCH1)",[1]; [125I]-S36057,+ (“+” indicates greater than 50% inhibition at 10 μM)
same,"A7: inhibition of radioligand binding, human μ-opioid (MOP)",Human μ-opioid (MOP); [3H]-Naloxone,− (“−” indicates less than 50% inhibition at 10 μM)
same,"A8: inhibition of radioligand binding, human neurokinin (NK1)",Human neurokinin (NK1); [125I]-Substance P,+ (“+” indicates greater than 50% inhibition at 10 μM)
same,"A9: inhibition of radioligand binding, human neuropeptide Y (NPY-Y1)","[2]; [125I]-PYY, 10 µM",− (“−” indicates less than 50% inhibition at 10 μM)
same,"A10: inhibition of radioligand binding, human opioid (ORL1)",Human opioid (ORL1); [125I]-Nociceptin,+ (“+” indicates greater than 50% inhibition at 10 μM)
same,"A11: inhibition of radioligand binding, mouse urotensin (mUR2)","Mouse urotensin (mUR2); [125I]-Urotensin II, 10 µM",− (“−” indicates less than 50% inhibition at 10 μM)
COC[C@H]1OC(OCc2ccc(Cl)cc2)[C@H](NC(=O)CNC(=N)N)[C@@H](OCc2ccc3ccccc3c2)[C@@H]1O (stereo partly drawn) [compound 31],A1 radioligand binding inhibition,Human δ-opioid (DOP); human δ-opioid (DOP) membranes,− (“−” indicates less than 50% inhibition at 10 μM)
same,A2 radioligand binding inhibition,Human κ-Opioid (KOP); human κ-opioid (KOP) membranes,− (“−” indicates less than 50% inhibition at 10 μM)
same,A3 radioligand binding inhibition,Human Melanocortin (MC3); human melanocortin MC3 membranes,+ (“+” indicates greater than 50% inhibition at 10 μM)
same,A4 radioligand binding inhibition,Human Melanocortin (MC4); human melanocortin MC4 membranes,− (“−” indicates less than 50% inhibition at 10 μM)
same,A5 radioligand binding inhibition,Human melanocortin (MC5); human melanocortin MC5 membranes,+ (“+” indicates greater than 50% inhibition at 10 μM)
same,A6 radioligand binding inhibition,[1]; human MCH1 membranes,− (“−” indicates less than 50% inhibition at 10 μM)
same,A7 radioligand binding inhibition,Human μ-opioid (MOP); human μ-opioid (MOP) membranes,+ (“+” indicates greater than 50% inhibition at 10 μM)
same,A8 radioligand binding inhibition,Human neurokinin (NK1); human neurokinin NK1 membranes,− (“−” indicates less than 50% inhibition at 10 μM)
same,A9 radioligand binding inhibition,[2]; human NPY-Y1 membranes,− (“−” indicates less than 50% inhibition at 10 μM)
same,A10 radioligand binding inhibition,Human opioid (ORL1); human ORL1 membranes,− (“−” indicates less than 50% inhibition at 10 μM)
same,A11 radioligand binding inhibition,Mouse urotensin (mUR2); mouse urotensin mUR2 membranes,− (“−” indicates less than 50% inhibition at 10 μM)
